In the SangsterLogP compilation:

How the values were obtained:
[1] = method code SF-HPLC, from DOI: 10.1016/0731-7085(91)80215-u, PMID: 1821151; conditions: pH 7.4
[2] = method code SF-HPLC, from DOI: 10.1016/s0006-2952(00)00420-2, PMID: 10974206
[3] = method code SF-AS, from DOI: 10.1081/jlc-120022394
[4] = method code SF, from Huang, Q.; Wang, L.; Han, S.; Wang, G.; Gao, H. (1993). Quantitative relation between molecular structures and the hydrophobic parameters of halogenated arenes. Chemical Journal of Chinese …
[5] = method code SF, from DOI: 10.1016/0165-1218(78)90089-7, PMID: 362190
[6] = not given; remark: listed apart in the source
[7] = not given; remark: listed apart in the source
[8] = not given; remark: listed apart in the source
[9] = not given; remark: listed apart in the source
[10] = method code SF-HPLC, from DOI: 10.1002/jps.10112, PMID: 12115830; conditions: pH 7.4
[11] = method code SF-AS, from DOI: 10.1248/cpb.17.2558
[12] = method code SF, from DOI: 10.1021/jm00294a005, PMID: 5000561
[13] = method code SF-AS, from DOI: 10.1016/s0020-1693(00)85781-3
[14] = method code SF-AS, from DOI: 10.1248/bpb1978.7.120, PMID: 6427444

For CCC(C(=O)OCc1ccccc1)C(COC(=O)c1ccccc1)c1cncn1C (configuration not stated), the logD [1] was 4.57.

CN(C)CCCNc1c2ccccc2[n+]([O-])c2ccccc12 showed a logP [2] of 2.5.

Work on CCOC(=O)C(=Cc1ccoc1)NC=O yielded a logP [3] of 2.08.

For Brc1ccc(Br)c(Br)c1, the logP [4] was 4.98.

Compound ClC1=C(Cl)C(Cl)(Cl)C(Cl)=C1Cl has a logP of 5.04.

With NC(=O)/C(=C\c1ccc([N+](=O)[O-])o1)c1ccco1 the logP [5] was 0.15.

Compound ClC(Cl)=C(c1ccc(Cl)cc1)c1ccc(Cl)cc1 has a logP of 5.89.

Compound O=C1c2c(O)cccc2C(C(=O)c2ccc(OCc3ccccc3)cc2)c2cccc(O)c21 has a logP [6] of 4.22.

Compound FC(F)(Cl)C(F)(Cl)Cl has a logP of 3.16.

O=C1c2c(O)cccc2C(C(=O)c2cc(O)c(O)c(O)c2)c2cccc(O)c21 gave a logP [6] of 2.44.

For CC[C@H]1OC(=O)C[C@@H](O)[C@H](C)[C@@H](O[C@@H]2O[C@H](C)[C@@H](O)[C@H](N(C)C)[C@H]2O)[C@@H](CC=O)C[C@@H](C)C(=O)/C=C/C(C)=C/[C@@H]1CO, the logP [7] was 0.99.

O=Cc1cccnc1 showed a logP [8] of 0.29.

Work on O=[N+]([O-])c1ccc(Cl)cc1 yielded a logP [9] of 2.45.

CCC(C)SSc1ncc[nH]1 (configuration not stated) gave a logD [10] of 2.76.

In the case of Cc1cccc(S(N)(=O)=O)c1, the logD ([11]; pH 2.0) is reported as 0.85.

With Brc1cccnc1 the logP [8] was 1.5.

Compound CCCCC1CC(C(=O)NC(CC(C)O)C2OC(SC)C(O)C(O)C2O)N(C)C1 (configuration not stated) has a logP [12] of 0.56.

CCC(=O)OCC(c1cncn1C)C(CC)C(=O)OCc1ccccc1 (configuration not stated) showed a logD [1] of 3.3.

Work on O=C(O)c1ccc2c(c1)COCCOCCOCCOCCOCCOC2 yielded a logP [13] of -0.28.

CCCC(=O)O[C@H]1[C@H](C)O[C@@H](O[C@H]2[C@H](N(C)C)[C@@H](O)[C@H](O[C@H]3[C@@H](CC=O)C[C@@H](C)[C@@H](O)/C=C/C=C/C[C@@H](C)OC(=O)C[C@@H](O)[C@@H]3OC)O[C@@H]2C)C[C@@]1(C)O showed a logP [12] of 1.88.

Work on C=CCOCC(O)Cn1ccnc1[N+](=O)[O-] (configuration not stated) yielded a logP [5] of 0.3.

In the case of c1ccc(CSSc2ncc[nH]2)cc1, the logD [10] is reported as 3.05.

CCCCCCCCCOC(=O)N1[C@H]2[C@@H]1CN1C3=C(C(=O)C(N)=C(C)C3=O)[C@@H](COC(N)=O)[C@@]21OC showed a logP [14] of 3.56.

With CCN(CC)CCCNC(=O)C(=O)NN=Cc1ccc([N+](=O)[O-])o1 the logP [5] was -1.12.

In the case of CCOC(=O)C(=Cc1cccc(Cl)c1)NC=O, the logP [3] is reported as 2.51.

Compound CCCCC(=O)OCC(c1cncn1C)C(CC)C(=O)OCC1CCCCC1 (configuration not stated) has a logD [1] of 5.56.

Work on CO[C@@H]1[C@@H](O[C@@H]2O[C@H](C)[C@@H](O[C@H]3C[C@@](C)(O)[C@@H](OC(C)=O)[C@H](C)O3)[C@H](N(C)C)[C@H]2O)[C@@H](CC=O)C[C@@H](C)[C@@H](O)/C=C\C=C/C[C@@H](C)OC(=O)C[C@H]1O yielded a logP [12] of 0.88.

In the case of CO[C@@H]1[C@@H](O[C@@H]2O[C@H](C)[C@@H](O[C@H]3C[C@@](C)(O)[C@@H](OC(C)=O)[C@H](C)O3)[C@H](N(C)C)[C@H]2O)[C@@H](CC=O)C[C@@H](C)[C@@H](O)/C=C/C=C/C[C@@H](C)OC(=O)C[C@H]1OC(C)=O, the logP [12] is reported as 0.88.

For Brc1cccc(Br)c1Br, the logP [4] was 4.98.

O=C1c2c(O)cccc2C(C(=O)c2ccc3c(c2)OCO3)c2cccc(O)c21 gave a logP [6] of 3.68.

Work on CN(C)c1cccc([N+](=O)[O-])c1 yielded a logP [9] of 2.16.

For CO[C@H]1C[C@H](O[C@H]2[C@H](C)[C@@H](O[C@@H]3O[C@H](C)C[C@H](N(C)C)[C@H]3O)[C@@H](C)C[C@@]3(CO3)C(=O)[C@H](C)[C@@H](O)[C@@H](C)[C@@H](C)OC(=O)[C@@H]2C)O[C@@H](C)[C@@H]1O, the logP [7] was 1.69.

In the case of Brc1cc(Br)cc(Br)c1, the logP [4] is reported as 4.98.

Work on CCCOC(=O)N1C2CN3C4=C(C(=O)C(N)=C(C)C4=O)C(COC(N)=O)C3(OC)C21 (configuration not stated) yielded a logP [14] of 1.51.

Compound CC(=O)c1ccc2c(c1)COCCOCCOCCOCCOCCOC2 has a logP [13] of -0.05.

In the case of CCCCC(=O)OCC(c1cncn1C)C(CC)C(=O)OCc1ccccc1 (configuration not stated), the logD [1] is reported as 4.43.

CCCC(=O)OC1C(C)OC(OC2C(C)OC(OC3C(CC=O)CC(C)C(O)/C=C\C=C\CC(C)OC(=O)CC(OC(C)=O)C3OC)C(O)C2N(C)C)CC1(C)O (configuration not stated) gave a logP [12] of 1.88.

With c1ccc2c(c1)COCCOCCOCCOCCOCCOC2 the logP [13] was 0.15.

Work on COC12C(COC(N)=O)C3=C(C(=O)C(C)=C(N)C3=O)N1CC1C2N1C(=O)OCc1ccccc1 (configuration not stated) yielded a logP [14] of 2.05.

Work on CCC1OC(=O)CC(O)C(C)C(OC2OC(C)C(OC3C[C@@](C)(O)C(O)C(C)O3)C(N(C)C)C2O)C(CC=O)CC(C)C(=O)C=CC(C)=CC1COC1OC(C)C(O)C(OC)C1OC (some centres not stated) yielded a logP [7] of 1.63.

Compound CCCCCCCCOC(=O)COc1ccc(Cl)cc1Cl has a logP of 5.86.

With CC(C)(C)SSc1ncc[nH]1 the logD [10] was 2.56.

CC(O)C(C)SSc1ncc[nH]1 (configuration not stated) showed a logD [10] of 1.39.

With CC(C)(C)c1ccncc1 the logP [8] was 2.42.

For CCC1OC(=O)CC(O)C(C)C(O[C@H]2OC(C)C(O)C(N(C)C)C2O)C(CCN2CC(C)CC(C)C2)CC(C)C(=O)C=CC(C)=CC1COC1OC(C)C(O)C(OC)C1OC (some centres not stated), the logP [7] was 3.8.

Compound O=C1c2c(O)cccc2C(C(=O)c2ccc(O)cc2)c2cccc(O)c21 has a logP [6] of 3.11.

Brc1ccncc1 showed a logP [8] of 1.49.

For Cc1nc([N+](=O)[O-])cn1CCO, the logP [5] was -0.59.

For C[N+](C)([O-])CCCNc1c2ccccc2nc2ccccc12, the logP [2] was 0.4.

With CCOC(=O)C(=CC=Cc1ccccc1)NC=O the logP [3] was 2.91.

In the case of CN(C)CCCNc1c2ccccc2nc2cccc([N+](=O)[O-])c12, the logP [2] is reported as 3.8.

In the case of c1ccc2c(c1)COCCOCCOCCOCCOCc1ccccc1COCCOCCOCCOCCOC2, the logP [13] is reported as 1.84.

In the case of CN(C)CCCNc1c2ccccc2[n+]([O-])c2cccc([N+](=O)[O-])c12, the logP [2] is reported as 3.1.

Work on CCCCCOC(=O)N1C2CN3C4=C(C(=O)C(N)=C(C)C4=O)C(COC(N)=O)C3(OC)C21 (configuration not stated) yielded a logP [14] of 2.45.

For Nc1cccnc1, the logP [8] was 0.05.

With O=[N+]([O-])c1cccc(Cl)c1 the logP [9] was 2.59.

For CC[C@H]1OC(=O)[C@H](C)[C@@H](O[C@H]2C[C@@](C)(OC)[C@@H](O)[C@H](C)O2)[C@H](C)[C@@H](O[C@@H]2O[C@H](C)C[C@H](N(C)C)[C@H]2O)[C@](C)(O)C[C@@H](C)C(N)[C@H](C)[C@H]2OC(=O)O[C@@]21C (some centres not stated), the logP [7] was 2.92.

O=C1c2c(O)cccc2C(C(=O)c2ccc(O)c(O)c2)c2cccc(O)c21 gave a logP [6] of 2.79.

Compound CCOC(=O)C(=Cc1ccccc1)NC=O has a logP [3] of 2.48.

With CCC(=O)O[C@H]1[C@H](C)O[C@@H](O[C@H]2[C@H](N(C)C)[C@@H](O)[C@H](O[C@H]3[C@@H](CC=O)C[C@@H](C)[C@@H](O)/C=C/C=C/C[C@@H](C)OC(=O)C[C@@H](O)[C@@H]3OC)O[C@@H]2C)C[C@@]1(C)O the logP [12] was 1.38.

For CCOC(=O)C(=Cc1ccc2c(c1)OCO2)NC=O, the logP [3] was 1.66.

C1CCCCCC2OC2CCCC1 (configuration not stated) showed a logP of 4.7.

Work on COC12C(COC(N)=O)C3=C(C(=O)C(C)=C(N)C3=O)N1CC1C2N1C(=O)OC1CCC2=CCC3C(CCC4(C)C(C(C)CCCC(C)C)CCC34)C2(C)CC1 (configuration not stated) yielded a logP [14] of 3.88.

In the case of CN(C)CCCNc1c2ccccc2nc2ccccc12, the logP [2] is reported as 3.6.

CO[C@@H]1[C@@H](O[C@@H]2O[C@H](C)[C@@H](O[C@H]3C[C@@](C)(O)[C@@H](OC(=O)CC(C)C)[C@H](C)O3)[C@H](N(C)C)[C@H]2O)[C@@H](CC=O)C[C@@H](C)C(=O)/C=C/C2OC2C[C@@H](C)OC(=O)C[C@H]1OC(C)=O (some centres not stated) showed a logP [7] of 3.04.

Work on Clc1cccc(Br)c1 yielded a logP [4] of 3.83.

Work on Clc1ccccc1Br yielded a logP [4] of 3.83.

Compound Cc1ccccc1S(N)(=O)=O has a logD ([11]; pH 2.0) of 0.84.

C[N+](C)([O-])CCCNc1c2ccccc2nc2cccc([N+](=O)[O-])c12 gave a logP [2] of 1.4.

For NS(=O)(=O)c1ccc(Cl)c([N+](=O)[O-])c1, the logD ([11]; pH 2.0) was 1.91.

CCSSc1ncc[nH]1 gave a logD [10] of 2.13.

In the case of CCC(C(=O)OCc1ccccc1)C(COC(=O)c1cccc(Cl)c1)c1cncn1C (configuration not stated), the logD [1] is reported as 5.64.

For COC12C(COC(N)=O)C3=C(C(=O)C(C)=C(N)C3=O)N1CC1C2N1C(=O)Cc1ccccc1 (configuration not stated), the logP [14] was 1.54.

Compound COc1cccc([N+](=O)[O-])c1 has a logP [9] of 2.09.

For c1ccc2c(c1)COCCOCCOCCOCCOC2, the logP [13] was 0.7.

In the case of CCC(C(=O)OCc1ccccc1)C(COC(C)=O)c1cncn1C (configuration not stated), the logD [1] is reported as 2.87.

Compound O=[N+]([O-])c1ccccc1Br has a logP [9] of 2.5.

Compound NS(=O)(=O)c1ccc([N+](=O)[O-])c(C(F)(F)F)c1 has a logD ([11]; pH 2.0) of 1.73.

O=C1c2c(O)cccc2C(C(=O)c2ccccc2)c2cccc(O)c21 gave a logP [6] of 3.81.

For Cn1cnc([N+](=O)[O-])c1Cl, the logP [5] was 0.3.

With CCOC(=O)C(=Cc1ccccc1Cl)NC=O the logP [3] was 2.41.

With Nc1nnc(S(N)(=O)=O)s1 the logD ([11]; pH 5.5) was -0.9.
